Source: ChEMBL document CHEMBL1201862, “PubChem BioAssay data set” (2004)
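Compound exposure: 48 hours, 5 concentrations, 96-well plates. GI50 marks 50% less growth.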 Calls of active or inactive are those of the source. No stated cut-off is given here; in the data, active = GI50 up to about 1.1 µM and inactive = higher.

Experiments:
Experiment in all cases: growth of human tumour cells (NCI), 48 h
[1] = system: IGROV-1
[2] = system: SW-620
[3] = system: NCI/ADR-RES
[4] = system: MCF7
[5] = system: T47D
[6] = system: UACC-62
[7] = system: SN12C
[8] = system: ACHN
[9] = system: SF-295
[10] = system: UACC-257
[11] = system: HOP-92
[12] = system: HL-60
[13] = system: TK-10
[14] = system: MDA-MB-231
[15] = system: SF-268
[16] = system: SNB-19
[17] = system: A498
[18] = system: NCI-H460
[19] = system: K562
[20] = system: OVCAR-4
[21] = system: HCC 2998
[22] = system: EKVX
[23] = system: CCRF-CEM
[24] = system: SNB-75
[25] = system: MDA-MB-435
[26] = system: SK-MEL-2
[27] = system: UO-31
[28] = system: SK-OV-3
[29] = system: SK-MEL-5
[30] = system: NCI-H226
[31] = system: DU-145
[32] = system: HCT-116
[33] = system: RXF 393
[34] = system: NCI-H23
[35] = system: A549
[36] = system: MDA-N
[37] = system: OVCAR-3
[38] = system: OVCAR-5
[39] = system: COLO 205
[40] = system: KM12
[41] = system: SK-MEL-28
[42] = system: CAKI-1
[43] = system: NCI-H522
[44] = system: HCT-15
[45] = system: Hs-578T
[46] = system: OVCAR-8
[47] = system: Malme-3M
[48] = system: 786-0
[49] = system: RPMI-8226
[50] = system: HOP-62
[51] = system: M14
[52] = system: MOLT-4
[53] = system: U-251
[54] = system: PC-3
[55] = system: BT-549
[56] = system: HT-29
[57] = system: SF-539
[58] = system: LOX IMVI

**Q.** What does the source list for `CCCCCCCCCCCNC=O`?
**A.** GI50 [1]: 84.7 µM (inactive); GI50 [2]: 48.3 µM (inactive); GI50 [3]: 30.6 µM (inactive); GI50 [4]: 37.9 µM (inactive); GI50 [5]: 39.2 µM (inactive); GI50 [6]: 51.2 µM (inactive); GI50 [7]: 63.4 µM (inactive); GI50 [8]: 40.5 µM (inactive); GI50 [9]: 36.9 µM (inactive); GI50 [10]: 32.4 µM (inactive); GI50 [11]: 54.3 µM (inactive); GI50 [12]: 15.1 µM (inactive); GI50 [13]: 37.7 µM (inactive); GI50 [14]: 48.6 µM (inactive); GI50 [15]: 49.1 µM (inactive); GI50 [16]: > 100 µM (inactive); GI50 [17]: 22.4 µM (inactive); GI50 [18]: 53.7 µM (inactive); GI50 [19]: 23.7 µM (inactive); GI50 [20]: 45.3 µM (inactive); GI50 [21]: 24.4 µM (inactive); GI50 [22]: 52.8 µM (inactive); GI50 [23]: 26.5 µM (inactive); GI50 [24]: 50.8 µM (inactive); GI50 [25]: 73.8 µM (inactive); GI50 [26]: 24.8 µM (inactive); GI50 [27]: 33.8 µM (inactive); GI50 [28]: 75.5 µM (inactive); GI50 [29]: 36.9 µM (inactive); GI50 [30]: 94.6 µM (inactive); GI50 [31]: 84.7 µM (inactive); GI50 [32]: 33.6 µM (inactive); GI50 [33]: 48.8 µM (inactive); GI50 [34]: 44.5 µM (inactive); GI50 [35]: 51.3 µM (inactive); GI50 [36]: 56.6 µM (inactive); GI50 [37]: 35.4 µM (inactive); GI50 [38]: 80.9 µM (inactive); GI50 [39]: 49.3 µM (inactive); GI50 [40]: 45.3 µM (inactive); GI50 [41]: 68.5 µM (inactive); GI50 [42]: 33.3 µM (inactive); GI50 [43]: 24.5 µM (inactive); GI50 [44]: 27.4 µM; GI50 [45]: 52 µM (inactive); GI50 [46]: 58.1 µM (inactive); GI50 [47]: 54 µM (inactive); GI50 [48]: > 100 µM (inactive); GI50 [49]: 28.1 µM (inactive); GI50 [50]: > 100 µM (inactive); GI50 [51]: 63 µM (inactive); GI50 [52]: 22.6 µM (inactive); GI50 [53]: 25.9 µM (inactive); GI50 [54]: 23.9 µM (inactive); GI50 [55]: 21.8 µM (inactive); GI50 [56]: 37.3 µM (inactive); GI50 [57]: > 100 µM (inactive); GI50 [58]: 51.9 µM (inactive)
